Laboratory results taken from article PMC10447463, “Data-mining unveils structure–property–activity correlation of viral infectivity enhancing self-assembling peptides” (Nature Communications, 2023).
Like-named read-outs stand apart in the source and are kept apart here.

How the values were obtained:
[1] = β-sheet content by ATR-FT-IR; assay type: physicochemical; settings: Fig. S7 panel A; β-sheet content by ATR-FT-IR
Procedure, shortened: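 Measurements on freeze-dried PNF powders used a diamond ATR element, 64 scans each, with β-sheet fraction derived as previously reported. CR reflects loss of fluorescamine-reactive monomer after 3 kDa ultrafiltration, averaged over triplicates.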

[2] = assay type: physicochemical; settings: for ThT Cat. / ThT-Fluorescence (categorical): ThT-active if fluorescence at least twice the control
Procedure, shortened: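 Preformed peptide fibrils (1 mg/mL) mixed with 50 µM ThT in PBS, 15 min at RT, fluorescence ex 440/em 488 nm versus PBS blank, triplicates. Zeta potential: peptides at 1 mg/mL in PBS pH 7.4, aged 1 d at RT, diluted in 1 mM KCl, Smoluchowski from electrophoretic mobility.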

[3] = tested on: HIV-1 infection of TZM-bl cells; assay: HIV-1 infectivity enhancement assay, β-galactosidase luminescence; assay type: cell-based; settings: for Rel-EFC / Log10 Infection Rel EFC: 1.3 µM peptide; for Rel-EFC: infection relative to EF-C (QCKIKQIINMWQ = 1); for Log10 Infection Rel EFC: log10 of infection relative to EF-C; for Log Infectivity: Log10 infection relative to EF-C, TZM-bl cells, asymmetric std dev errors; for Log10 Infection Rel EF-C: HIV-1 infection of TZM-bl cells; for Log10 Inf. rel. to EF-C: log10 of HIV-1 infection of TZM-bl cells relative to EF-C (EF-C = 0); for Abs. Inf.: absolute infection signal, HIV-1 on TZM-bl cells, β-galactosidase luminescence
[4] = ThT fluorescence category, 1 if Rel. ThT >2
[5] = Fig. S7 panel A (plotted against β-sheet content)
[6] = Log10 of infection rate relative to EF-C, Figure 3A source data
[7] = infection rate relative to EF-C, log10, data of Figure 2D
[8] = infection rate relative to EF-C, log10, source data of Figure 2C
[9] = Fig. S7 panel B (plotted against CR), rounded to two decimals

Substance	b -sheet / % [1]	Tht category (> 2 to blank = +) ([2]; Fig S10 panel D)	Tht category (> 2 to blank = +) ([2]; FigS12 panel A)	ThT Cat, ([2]; FigS12 panel B)	ThT Cat, ([2]; ThT category, 1 if Rel. ThT >2)	ThT Cat. [2, 4]	ThT Cat. / ThT-Fluorescence (categorical) [2]	Rel-EFC [3]	Log10 Infection Rel EFC [3]	Log Infectivity [3, 5]	Log10 Infection Rel EF-C [3, 6]	Log10 Infection Rel EF-C [3, 7]	Log10 Infection Rel EF-C [3, 8]	Log10 Inf. rel. to EF-C [3]	ThT Cat. ([2]; ThT category, 1 if Rel. ThT >2)	Abs. Inf. [3]	ThT Cat. ([2]; Fig S10 panel E)	Log Infectivity [3, 9]
EIEIEIEI	62.61%	0 (ThT-inactive (N-Fold <2))	0 (ThT-inactive (N-Fold <2))	0 (ThT-inactive (N-Fold <2))	0 (ThT-inactive (N-Fold <2))	0 (ThT-inactive (N-Fold <2))	0 (ThT-inactive (N-Fold <2))	0,02	-1,75	-1.748	-1.75	-1.748	-1.748	-1.748	–	–	–	–
FDPFDPFDP	48.89%	0 (ThT-inactive (N-Fold <2))	0 (ThT-inactive (N-Fold <2))	0 (ThT-inactive (N-Fold <2))	0 (ThT-inactive (N-Fold <2))	–	0 (ThT-inactive (N-Fold <2))	0,02	-1,63	-1.6317	-1.63	-1.6317	-1.6317	-1.6317	0 (ThT-inactive (N-Fold <2))	346.7	–	–
FKFDKFKFDK	46.64%	0 (ThT-inactive (N-Fold <2))	0 (ThT-inactive (N-Fold <2))	0 (ThT-inactive (N-Fold <2))	0 (ThT-inactive (N-Fold <2))	–	0 (ThT-inactive (N-Fold <2))	0,05	-1,33	-1.334	-1.33	-1.334	-1.334	-1.334	0 (ThT-inactive (N-Fold <2))	513.3	–	–
HGDKCHGDKC	4.749%	0 (ThT-inactive (N-Fold <2))	0 (ThT-inactive (N-Fold <2))	0 (ThT-inactive (N-Fold <2))	0 (ThT-inactive (N-Fold <2))	–	0 (ThT-inactive (N-Fold <2))	0,01	-1,99	-1.991	-1.99	-1.991	-1.991	-1.991	0 (ThT-inactive (N-Fold <2))	263.3	0 (ThT-inactive (N-Fold <2))	-1.99
HGEHGE	9.5428%	0 (ThT-inactive (N-Fold <2))	0 (ThT-inactive (N-Fold <2))	0 (ThT-inactive (N-Fold <2))	0 (ThT-inactive (N-Fold <2))	–	0 (ThT-inactive (N-Fold <2))	0,01	-2,19	-2.193	-2.19	-2.193	-2.193	-2.193	0 (ThT-inactive (N-Fold <2))	140	–	–
HGEHGEHGE	6.271%	0 (ThT-inactive (N-Fold <2))	0 (ThT-inactive (N-Fold <2))	0 (ThT-inactive (N-Fold <2))	0 (ThT-inactive (N-Fold <2))	–	0 (ThT-inactive (N-Fold <2))	0,02	-1,72	-1.72	-1.72	-1.72	-1.72	-1.72	0 (ThT-inactive (N-Fold <2))	360	0 (ThT-inactive (N-Fold <2))	-1.72
HHHHEIEIEIEI	48.37%	1 (ThT. Cat is 1, if Rel. ThT >2)	1 (ThT. Cat is 1, if Rel. ThT >2)	1 (ThT. Cat is 1, if Rel. ThT >2)	1 (ThT. Cat is 1, if Rel. ThT >2)	1 (ThT. Cat is 1, if Rel. ThT >2)	1 (ThT. Cat is 1, if Rel. ThT >2)	0,03	-1,53	-1.534	-1.53	-1.534	-1.534	–	–	–	–	–
